# Data from US11309064B2, “Individualized dosing technique with multiple variables” (priority 2017, dated 2022).
# Legend:
# [1] = test system: blood glucose; assay: Software readout, predicted blood glucose for an insulin dose (Example 6); parameters: species or system patient; conditions: 100 units Subcutaneous every 24 hrs
# Excerpt: A diabetes patient tells the health care provider their average daily blood glucose value. A health care provider can do this over a phone or via the Internet. A physical exam, review of biological systems, and medicine reconciliation is done and the information is put into software program. Then, for example, the software may have readout of “Given the data collected, the dose of 100 units of insulin Subcutaneous every 24 hrs will result in blood glucose of between 90-150 with a 50%-90% possibility if compliant with medications and no other variables change.”
# [2] = test system: INR; assay: Software readout, predicted INR for a Warfarin dose (Example 5); parameters: species or system patient; conditions: 5 mg by mouth every 24 hours
# Excerpt: The nurse takes their INR lab value and enters it into a software program. The health care provider has the software open on a computer or a hand held device. Then the provider asks the patient the relevant questions, does a physical exam and inputs this into the electronic form.
# [3] = test system: patients with nonvalvular AF; conditions: long-term anticoagulation therapy; cited from earlier work
# [4] = test system: INR; assay: INR and individual INR/Warfarin dose equation (Examples 7 and 8)
# [5] = test system: INR; assay: INR lab value at clinic visits under Warfarin (Example 4); format: in vivo, patient
# [6] = test system: plasma proteins; conditions: cited from earlier work
compound,measurement,setting,value
insulin,predicted blood glucose,[1],90-150
CC(=O)CC(c1ccccc1)c1c(O)c2ccccc2oc1=O (racemic) [Warfarin],predicted INR,[2],2-3
same,reduction of the risk for ischemic stroke,[3],approximately 68%
same,INR,[4]; Lasix 30 mg/day and Warfarin 7.5 mg/day,~3
same,INR,"[4]; Warfarin 7.5 mg, 1 week after start of amoxicillin 500 mg / clavulanate 250 mg 3 times a day",2.5
same,INR,"[4]; Warfarin 7.5 mg, next office visit after amoxicillin/clavulanate",6
same,INR,[4]; a week later again,9
same,observed INR,"[4]; after Lasix increased to 60 mg/day, Warfarin dose from earlier formula",4-5
same,INR,"[4]; after Warfarin stopped, blood transfusion and a dose of Vitamin K",3.5
same,INR,"[5]; 1 month later on 5 mg Warfarin, Lasix 40 mg every 24 hours, over 3 glasses of wine last evening",4.3
same,INR,"[5]; 1 week on 7 mg Warfarin by mouth everyday, with HCTZ 25 mg, Doxycycline 100 mg every 12 hours, some aspirin",3.4
same,INR,"[5]; 2 weeks after restart at 5 mg Warfarin, Lasix 60 mg a day, 73 kg, antidepressant",2.3
same,INR,"[5]; 2 weeks on 5 mg Warfarin every day, HCTZ 25 mg only",2.5
CC(=O)O[C@H]1C(=O)[C@@]2(C)[C@H]([C@H](OC(=O)c3ccccc3)[C@]3(O)C[C@H](OC(=O)[C@H](O)[C@@H](NC(=O)c4ccccc4)c4ccccc4)C(C)=C1C3(C)C)[C@]1(OC(C)=O)CO[C@@H]1C[C@@H]2O [paclitaxel],protein binding,[6],Highly protein bound. Interacts with other protein-bound drugs
COc1cc([C@@H]2c3cc4c(cc3[C@@H](O[C@@H]3O[C@@H]5CO[C@@H](C)O[C@H]5[C@H](O)[C@H]3O)[C@H]3COC(=O)[C@H]23)OCO4)cc(OC)c1O [etoposide],protein binding,[6],Highly protein bound. Interacts with other protein-bound drugs
CC/C(=C(\c1ccccc1)c1ccc(OCCN(C)C)cc1)c1ccccc1 [Tamoxifen],protein binding,[6],Tamoxifen and Warfarin are highly protein bound. Tamoxifen
